pIC50: −log10 of the molar value.
What was measured:
Tyrosinase = biological target: T1, Tyrosinase (Agaricus bisporus, UniProt O42713)
T1 sequence (O42713 whole entry): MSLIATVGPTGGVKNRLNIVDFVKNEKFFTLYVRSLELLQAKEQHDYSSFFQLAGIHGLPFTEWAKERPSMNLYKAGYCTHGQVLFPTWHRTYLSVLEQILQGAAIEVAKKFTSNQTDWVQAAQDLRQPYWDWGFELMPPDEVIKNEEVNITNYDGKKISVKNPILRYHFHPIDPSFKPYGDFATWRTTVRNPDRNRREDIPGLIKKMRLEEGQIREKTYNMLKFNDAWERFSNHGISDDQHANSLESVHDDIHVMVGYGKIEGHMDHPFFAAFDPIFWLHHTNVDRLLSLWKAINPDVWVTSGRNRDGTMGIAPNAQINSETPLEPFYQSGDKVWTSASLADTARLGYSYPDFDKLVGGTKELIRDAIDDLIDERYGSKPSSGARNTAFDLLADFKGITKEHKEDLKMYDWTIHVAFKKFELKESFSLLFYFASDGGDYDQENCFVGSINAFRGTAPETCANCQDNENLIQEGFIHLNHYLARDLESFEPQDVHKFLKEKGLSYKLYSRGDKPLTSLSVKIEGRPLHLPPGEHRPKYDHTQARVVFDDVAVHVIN
Description: Inhibition of mushroom tyrosinase activity using L-tyrosine as substrate by spectrometric analysis

B16 [1] = assay: cells; settings: Mus musculus, B16, 72 h, read-out: INH
Description: Inhibition of alpha-MSH -stimulated melanogenesis in mouse B16 cells assessed as melanin release at 10 uM after 72 hrs by spectrometric analysis

B16 [2] = assay: cells; settings: Mus musculus, B16, 72 h
Description: Inhibition of alpha-MSH -stimulated melanogenesis in mouse B16 cells assessed as melanin release after 72 hrs by spectrometric analysis

Row | SMILES | pIC50 (Tyrosinase) | pIC50 (B16 [2]) | inhibition at 10 µM (B16 [1]) [%]
1 | Cc1cccc(NC(N)=S)c1 | 6.22 |  | 
2 | Cc1ccccc1NC(N)=S | 6.08 |  | 
3 | S=C(NCCc1ccccc1)Nc1ccccc1 | < 4.00 | 5.66 | > 100
4 | S=C(NCCCc1ccccc1)Nc1ccccc1 | < 4.00 | 5.74 | > 100
5 | COc1ccc(NC(S)=Nc2ccccc2)cc1 | < 4.00 | 5.09 | 59
6 | CNC(=S)Nc1ccccc1 | < 4.00 | 4.46 | 30
7 | Cc1ccc(NC(=S)Nc2ccccc2)cc1 | < 4.00 | 5.20 | 79
8 | S=C(Nc1ccccc1)Nc1ccc(Cl)cc1 | < 4.00 | 5.47 | > 100
9 | S=C(Nc1ccccc1)NC1CCCCC1 | < 4.00 | 5.62 | > 100
10 | S=C(NCc1ccccc1)Nc1ccccc1 | < 4.00 | 5.33 | 91
11 | CC(C)N(C(=S)Nc1ccccc1)C(C)C | < 4.00 | 4.71 | 30
12 | Oc1ccc(N/C(S)=N/c2ccccc2)cc1 | < 4.00 | 4.68 | 24
13 | Cc1ccc2c(c1)CN(CCc1ccccc1)C(=S)N2 | < 4.00 |  | 

More lines, main results first:

Row | pIC50 (Tyrosinase) | pIC50 (B16 [2]) | SMILES | inhibition at 10 µM (B16 [1]) [%]
14 | 4.57 |  | CCc1ccccc1NC(N)=S | 
15 | 4.60 |  | NC(=S)NCc1ccccc1 | 
16 | < 4.00 |  | NC(=S)NCCc1ccccc1 | 
17 | 4.19 |  | NC(=S)NCCCc1ccccc1 | 
18 | 5.85 |  | Cc1ccc(NC(N)=S)cc1 | 
19 | 6.10 |  | CCc1ccc(NC(N)=S)cc1 | 
20 | 5.77 |  | CC(C)(C)c1ccc(NC(N)=S)cc1 | 
21 | < 4.00 |  | CC(C)(C)c1ccccc1NC(N)=S | 
22 | < 4.00 |  | S=C1NCc2ccccc2N1 | 

— ChEMBL document CHEMBL1909585 (Bioorg Med Chem Lett, 2011)
